Data published in paper PMC12583704 (Signal Transduction and Targeted Therapy, 2025).

Test: Phase 1 study NCT03594422: adverse events graded by NCI CTCAE v4.03
Assay type: in vivo, human
Description: Part 1 was a dose-escalation study to determine the recommended phase 2 dose (RP2D) in solid tumors. […] The initial design was a 3 + 3 dose escalation from 20 mg, but the protocol was amended to randomly enroll and assign patients to starting doses of 30, 40, and 50 mg on the basis of safety data acquired in the CML trial.[20] […] An interactive web response system was used for randomization. Part 2 was a nonrandomized study focusing on patients with SDH-deficient GISTs. […] On the basis of preliminary data from adult patients, adolescent patients with advanced wild-type GISTs were also included in Part 2. The dosage for adolescents was adjusted according to their body weights.
AEs were evaluated at each follow-up visit: on Days 1, 8, 15, and 22 during Cycles 1 and 2; and on Days 1 and 15 in Cycle 3 and all subsequent cycles, up to 30 days after the final dose. All AEs were graded according to the National Cancer Institute Common Terminology Criteria for Adverse Events v4.03. Clinical laboratory investigations for routine blood examinations and serum chemistry parameters were performed during every cycle (on Day 1), during Cycles 1 and 2 (on Days 8, 15, and 22), and 30 days after the last dose of treatment. Urinalysis, coagulation, cardiac troponin I/T, lipase, amylase, and electrocardiographic evaluations were conducted at baseline; during Cycles 1 and 2 (on Days 1 and 15); during Cycles 3, 5, 7, and 9; every three cycles after Cycle 9 (on Day 1); and 14 days after the last dose of treatment. All patients underwent tumor imaging for response assessment via computed tomography or magnetic resonance imaging at screening and every two cycles (8 weeks) until progression or discontinuation. Target and nontarget lesions were assessed per the Response Evaluation Criteria in Solid Tumors version 1.1 (RECIST v1.1).

Cc1ccc(C(=O)Nc2ccc(CN3CCN(C)CC3)c(C(F)(F)F)c2)cc1C#Cc1cnc2[nH]ncc2c1 [Olverembatinib, 3-[(1H-pyrazolo[3,4-b]pyridin-5-yl)ethynyl]-4-methyl-N-{4-[(4-methylpiperazin-1-yl)methyl]-3-(trifluoromethyl)phenyl]benzamide]
TEAE: Constipation (40 mg (n = 32), Grade 3-5): 0 n (%) | TEAE: Fatigue (40 mg (n = 32), Grade 3-5): 1 (3.1) n (%) | TEAE: Hyperuricemia (40 mg (n = 32), Grade 3-5): 0 n (%) | TEAE: Hypoalbuminemia (40 mg (n = 32), Grade 3-5): 0 n (%) | TEAE: Leukocyte count increased (40 mg (n = 32), Grade 3-5): 0 n (%) | TEAE: Melanocytic nevus (40 mg (n = 32), Grade 3-5): 0 n (%) | TEAE: Neutrophil count increased (40 mg (n = 32), Grade 3-5): 0 n (%) | TEAE: Pyrexia (40 mg (n = 32), Grade 3-5): 0 n (%) | TEAEs (40 mg (n = 32), Grade 3-5): 12 (37.5) n (%) | TRAE: ALT increased (40 mg (n = 32), Grade 3-5): 0 n (%) | TRAE: AST increased (40 mg (n = 32), Grade 3-5): 0 n (%) | TRAE: Anemia (40 mg (n = 32), Grade 3-5): 0 n (%) | TRAE: Blood creatinine increased (40 mg (n = 32), Grade 3-5): 0 n (%) | TRAE: Constipation (40 mg (n = 32), Grade 3-5): 0 n (%) | TRAE: Fatigue (40 mg (n = 32), Grade 3-5): 1 (3.1) n (%) | TRAE: Hypoalbuminemia (40 mg (n = 32), Grade 3-5): 0 n (%) | TRAE: Leukocyte count increased (40 mg (n = 32), Grade 3-5): 0 n (%) | TRAE: Melanocytic nevus (40 mg (n = 32), Grade 3-5): 0 n (%) | TRAE: Neutrophil count increased (40 mg (n = 32), Grade 3-5): 0 n (%) | TRAE: Platelet count increased (40 mg (n = 32), Grade 3-5): 0 n (%) | TRAE: Pyrexia (40 mg (n = 32), Grade 3-5): 0 n (%) | TEAE: Abdominal pain (50 mg (n = 16), Any grade): 3 (18.8) n (%) | TEAE: Alanine aminotransferase increased (50 mg (n = 16), Any grade): 6 (37.5) n (%) | TEAE: Anemia (50 mg (n = 16), Any grade): 8 (50.0) n (%) | TEAE: Aspartate aminotransferase increased (50 mg (n = 16), Any grade): 10 (62.5) n (%) | TEAE: C-reactive protein increased (50 mg (n = 16), Any grade): 4 (25.0) n (%) | TEAE: Constipation (50 mg (n = 16), Any grade): 7 (43.8) n (%) | TEAE: Fatigue (50 mg (n = 16), Any grade): 5 (31.3) n (%) | TEAE: Hyperuricemia (50 mg (n = 16), Any grade): 5 (31.3) n (%) | TEAE: Hypoalbuminemia (50 mg (n = 16), Any grade): 5 (31.3) n (%) | TEAE: Leukocyte count increased (50 mg (n = 16), Any grade): 8 (50.0) n (%) | TEAE: Melanocytic nevus (50 mg (n = 16), Any grade): 4 (25.0) n (%) | TEAE: Neutrophil count increased (50 mg (n = 16), Any grade): 6 (37.5) n (%) | TEAE: Pyrexia (50 mg (n = 16), Any grade): 6 (37.5) n (%) | TEAEs (50 mg (n = 16), Any grade): 16 (100.0) n (%) | TRAE: ALT increased (50 mg (n = 16), Any grade): 5 (31.3) n (%) | TRAE: AST increased (50 mg (n = 16), Any grade): 6 (37.5) n (%) | TRAE: Anemia (50 mg (n = 16), Any grade): 4 (25.0) n (%) | TRAE: Blood creatinine increased (50 mg (n = 16), Any grade): 1 (6.3) n (%) | TRAE: Constipation (50 mg (n = 16), Any grade): 5 (31.3) n (%) | TRAE: Fatigue (50 mg (n = 16), Any grade): 5 (31.3) n (%) | TRAE: Hypoalbuminemia (50 mg (n = 16), Any grade): 3 (18.8) n (%) | TRAE: Leukocyte count increased (50 mg (n = 16), Any grade): 8 (50.0) n (%) | TRAE: Melanocytic nevus (50 mg (n = 16), Any grade): 4 (25.0) n (%) | TRAE: Neutrophil count increased (50 mg (n = 16), Any grade): 6 (37.5) n (%) | TRAE: Platelet count increased (50 mg (n = 16), Any grade): 2 (12.5) n (%) | TRAE: Pyrexia (50 mg (n = 16), Any grade): 4 (25.0) n (%) | TEAE: Abdominal pain (50 mg (n = 16), Grade 3-5): 0 n (%) | TEAE: Alanine aminotransferase increased (50 mg (n = 16), Grade 3-5): 2 (12.5) n (%) | TEAE: Anemia (50 mg (n = 16), Grade 3-5): 1 (6.3) n (%) | TEAE: Aspartate aminotransferase increased (50 mg (n = 16), Grade 3-5): 2 (12.5) n (%) | TEAE: C-reactive protein increased (50 mg (n = 16), Grade 3-5): 0 n (%) | TEAE: Constipation (50 mg (n = 16), Grade 3-5): 0 n (%) | TEAE: Fatigue (50 mg (n = 16), Grade 3-5): 0 n (%) | TEAE: Hyperuricemia (50 mg (n = 16), Grade 3-5): 0 n (%) | TEAE: Hypoalbuminemia (50 mg (n = 16), Grade 3-5): 0 n (%) | TEAE: Leukocyte count increased (50 mg (n = 16), Grade 3-5): 0 n (%) | TEAE: Melanocytic nevus (50 mg (n = 16), Grade 3-5): 0 n (%) | TEAE: Neutrophil count increased (50 mg (n = 16), Grade 3-5): 0 n (%) | TEAE: Pyrexia (50 mg (n = 16), Grade 3-5): 0 n (%) | TEAEs (50 mg (n = 16), Grade 3-5): 9 (56.3) n (%) | TRAE: ALT increased (50 mg (n = 16), Grade 3-5): 1 (6.3) n (%) | TRAE: AST increased (50 mg (n = 16), Grade 3-5): 1 (6.3) n (%) | TRAE: Anemia (50 mg (n = 16), Grade 3-5): 0 n (%) | TRAE: Blood creatinine increased (50 mg (n = 16), Grade 3-5): 0 n (%) | TRAE: Constipation (50 mg (n = 16), Grade 3-5): 0 n (%) | TRAE: Fatigue (50 mg (n = 16), Grade 3-5): 0 n (%)
